Measured values from ChEMBL document CHEMBL1153657, “2-[4-(o-methoxyphenyl)piperazin-1-ylmethyl]-1,3-dioxoperhydroimidazo[1,5-a]pyridine as a new selective 5-HT1A receptor ligand” (Bioorg Med Chem Lett, 1996).

Tests used:
[1] = target: T1, Adrenergic receptor alpha-1 (Rattus norvegicus, UniProt P15823+P23944+P43140); assay: Binding affinity at Alpha-1 adrenergic receptor in rat cerebral cortex membranes by [3H]prazosin displacement.; assay type: cell membranes, Membrane
T1 sequence (P15823 whole entry): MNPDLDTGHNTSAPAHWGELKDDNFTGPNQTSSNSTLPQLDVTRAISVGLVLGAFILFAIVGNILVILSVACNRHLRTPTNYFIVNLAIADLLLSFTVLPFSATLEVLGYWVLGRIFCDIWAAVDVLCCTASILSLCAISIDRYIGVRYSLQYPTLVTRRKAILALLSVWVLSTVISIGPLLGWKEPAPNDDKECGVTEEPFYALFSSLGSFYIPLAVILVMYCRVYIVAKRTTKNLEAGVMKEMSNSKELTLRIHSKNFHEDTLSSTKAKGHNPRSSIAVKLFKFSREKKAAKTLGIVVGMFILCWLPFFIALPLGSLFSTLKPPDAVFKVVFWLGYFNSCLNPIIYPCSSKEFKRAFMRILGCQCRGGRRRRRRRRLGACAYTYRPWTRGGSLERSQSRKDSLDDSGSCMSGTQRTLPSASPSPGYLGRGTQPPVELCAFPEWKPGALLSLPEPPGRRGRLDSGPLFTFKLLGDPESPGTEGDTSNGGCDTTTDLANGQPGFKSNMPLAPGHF
T1 sequence (P23944 whole entry): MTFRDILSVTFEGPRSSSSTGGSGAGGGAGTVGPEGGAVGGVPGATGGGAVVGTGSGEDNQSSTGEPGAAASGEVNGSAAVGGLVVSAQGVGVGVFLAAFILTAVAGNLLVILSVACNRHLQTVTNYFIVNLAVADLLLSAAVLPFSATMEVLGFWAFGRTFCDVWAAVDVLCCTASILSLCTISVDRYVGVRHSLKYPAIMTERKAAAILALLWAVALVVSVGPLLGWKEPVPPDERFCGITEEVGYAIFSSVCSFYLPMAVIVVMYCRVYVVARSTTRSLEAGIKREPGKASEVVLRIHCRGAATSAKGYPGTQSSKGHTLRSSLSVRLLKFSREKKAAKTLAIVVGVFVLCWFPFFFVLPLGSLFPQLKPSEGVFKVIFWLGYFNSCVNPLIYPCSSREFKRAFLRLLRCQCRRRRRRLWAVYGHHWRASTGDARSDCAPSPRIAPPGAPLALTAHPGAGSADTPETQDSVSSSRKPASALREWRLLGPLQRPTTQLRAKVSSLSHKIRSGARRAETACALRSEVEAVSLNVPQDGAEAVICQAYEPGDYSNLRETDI
T1 sequence (P43140 whole entry): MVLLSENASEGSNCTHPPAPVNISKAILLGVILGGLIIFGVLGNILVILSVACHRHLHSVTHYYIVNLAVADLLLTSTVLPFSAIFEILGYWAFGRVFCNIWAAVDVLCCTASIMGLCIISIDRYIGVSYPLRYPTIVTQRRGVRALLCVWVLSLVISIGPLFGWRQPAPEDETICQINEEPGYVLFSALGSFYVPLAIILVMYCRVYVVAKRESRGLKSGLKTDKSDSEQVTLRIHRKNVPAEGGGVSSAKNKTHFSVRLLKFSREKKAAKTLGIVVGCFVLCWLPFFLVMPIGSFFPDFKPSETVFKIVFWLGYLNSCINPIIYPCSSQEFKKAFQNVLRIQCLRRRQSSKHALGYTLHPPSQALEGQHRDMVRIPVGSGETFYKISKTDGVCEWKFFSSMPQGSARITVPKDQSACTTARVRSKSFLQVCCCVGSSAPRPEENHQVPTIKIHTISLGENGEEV

[2] = target: T2, 5-hydroxytryptamine receptor 1A (Rattus norvegicus, UniProt P19327); assay: Compound was evaluated for its ability to displace [3H]8-OH-DPAT from serotonin 5-hydroxytryptamine 1A receptor in rat cerebral cortex membranes; assay type: cell membranes, Membrane
T2 sequence (P19327 whole entry): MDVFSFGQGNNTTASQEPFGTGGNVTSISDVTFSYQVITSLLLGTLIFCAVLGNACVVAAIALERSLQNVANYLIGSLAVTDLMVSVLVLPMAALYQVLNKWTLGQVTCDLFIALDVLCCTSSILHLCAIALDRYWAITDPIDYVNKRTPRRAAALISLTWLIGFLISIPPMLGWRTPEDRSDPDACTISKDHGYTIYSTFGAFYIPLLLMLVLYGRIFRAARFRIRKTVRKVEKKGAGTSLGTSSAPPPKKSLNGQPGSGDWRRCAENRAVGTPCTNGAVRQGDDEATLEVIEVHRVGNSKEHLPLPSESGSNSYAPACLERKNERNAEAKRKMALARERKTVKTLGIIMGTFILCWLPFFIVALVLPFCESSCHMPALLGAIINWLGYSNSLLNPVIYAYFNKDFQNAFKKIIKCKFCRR

[3] = target: 5-hydroxytryptamine receptor 2A (Rattus norvegicus, UniProt P14842); assay: Compound was evaluated for binding affinity against 5-hydroxytryptamine 2A receptor using [3H]ketanserin as a radioligand
5-hydroxytryptamine receptor 2A, sequence (P14842 whole entry): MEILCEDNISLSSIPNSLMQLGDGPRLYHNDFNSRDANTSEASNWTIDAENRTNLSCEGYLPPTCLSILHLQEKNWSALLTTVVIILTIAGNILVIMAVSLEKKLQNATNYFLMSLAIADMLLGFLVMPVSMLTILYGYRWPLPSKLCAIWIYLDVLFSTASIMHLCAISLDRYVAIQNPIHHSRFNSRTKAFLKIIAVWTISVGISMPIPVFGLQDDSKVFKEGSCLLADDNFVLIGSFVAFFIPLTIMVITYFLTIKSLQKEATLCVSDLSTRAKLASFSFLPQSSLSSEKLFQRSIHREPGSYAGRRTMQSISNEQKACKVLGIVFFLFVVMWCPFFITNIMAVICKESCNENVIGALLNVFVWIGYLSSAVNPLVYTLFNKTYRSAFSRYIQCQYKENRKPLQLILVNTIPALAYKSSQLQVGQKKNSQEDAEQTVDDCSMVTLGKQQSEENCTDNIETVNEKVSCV

Ki [1] | IC50 [2] | SMILES | other results
130 nM | – | COc1ccccc1N1CCN(CCN2C(=O)c3ccccc3C2=O)CC1 | –
33 nM | – | COc1ccccc1N1CCN(CCCN2C(=O)c3ccccc3C2=O)CC1 | –

The remaining lines, values behind:

SMILES | Ki [1] | IC50 [2] | other results
COc1ccccc1N1CCN(CCCCN2C(=O)CC3(CCCC3)CC2=O)CC1 | – | 2 nM | –
COc1ccccc1N1CCN(CN2C(=O)C3CCCCN3C2=O)CC1 (stereo not given) | – | – | Ki [3]: 1000 nM
COc1ccccc1N1CCN(CCCN2C(=O)CC3(CCCC3)CC2=O)CC1 | – | 80 nM | –
